Consider 1 compound from patent US11207321B2, “Methods and medical uses” (Institute of Cancer Research: Royal Cancer Hospital (The), priority 2017, dated 2021).

The test system of the assay is palbociclib-resistant breast cancer cell lines (wild type and LTED). The experiment in a line: Proliferation assays with MPS1 inhibitors in panel of palbociclib-resistant breast cancer cell lines. Conditions: addition of CCT289346 to palbociclib. In kind it is cell-based.

Protocol: Wt cells were stripped of E2 for 72 hrs prior to experiment. After 24 hrs cells were treated with escalating doses of MPS1 inhibitors±palbocliclib. Media was replaced after 3 days and cell viability was assessed after 6 days using the CellTitre-Glo® Luminescent Cell Viability Assay (Promega) according to manufacturer's instructions.

With `CCOc1cc(-c2nncn2C)ccc1Nc1ncc2cc(C)nc(NCC(C)(C)C)c2n1` [CCT289346, N2-(2-ethoxy-4-(4-methyl-4H-1,2,4-triazol-3-yl)phenyl)-6-methyl-N8-neopentylpyrido[3,4-d]pyrimidine-2,8-diamine], the “effect of combination with palbociclib” value was “synergistic/additive effect”.
